We go through 5 compounds from US20040224942A1 (priority 2003, published 2004).

“And” between values parts separate entries of the source, which are not always exact repeats. Identical values can stand only once. Like-named read-outs stand apart in the source and are kept apart here. Where only a bound is given, the exact number is not on record here.

Data set [1] addresses T1, M5 muscarinic receptor (Homo sapiens, UniProt P08912).
T1 construct: expressed in transfected cells
T1 sequence (P08912 1-532): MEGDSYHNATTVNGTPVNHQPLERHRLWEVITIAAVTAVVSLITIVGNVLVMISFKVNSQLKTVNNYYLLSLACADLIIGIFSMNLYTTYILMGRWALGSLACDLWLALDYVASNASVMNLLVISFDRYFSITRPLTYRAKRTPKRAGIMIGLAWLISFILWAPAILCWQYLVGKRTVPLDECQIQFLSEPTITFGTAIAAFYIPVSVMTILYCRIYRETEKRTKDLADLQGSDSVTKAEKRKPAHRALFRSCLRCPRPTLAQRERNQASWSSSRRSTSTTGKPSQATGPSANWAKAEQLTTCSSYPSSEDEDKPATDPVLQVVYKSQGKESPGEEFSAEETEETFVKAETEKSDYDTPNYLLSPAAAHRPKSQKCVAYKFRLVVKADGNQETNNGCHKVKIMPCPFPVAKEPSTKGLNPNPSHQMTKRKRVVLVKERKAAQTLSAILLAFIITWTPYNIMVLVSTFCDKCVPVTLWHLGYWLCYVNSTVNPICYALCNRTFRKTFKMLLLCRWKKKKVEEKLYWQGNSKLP
Nature of the data set: R-SAT functional receptor assay, M5. The class given is cell-based. As to conditions: for Emax: read-out: % Efficacy M5; for % Efficacy M5: relative to full agonist carbachol.

The target in data set [2] is T2, M4 muscarinic receptor (Homo sapiens, UniProt P08173).
T2 sequence (P08173 1-479): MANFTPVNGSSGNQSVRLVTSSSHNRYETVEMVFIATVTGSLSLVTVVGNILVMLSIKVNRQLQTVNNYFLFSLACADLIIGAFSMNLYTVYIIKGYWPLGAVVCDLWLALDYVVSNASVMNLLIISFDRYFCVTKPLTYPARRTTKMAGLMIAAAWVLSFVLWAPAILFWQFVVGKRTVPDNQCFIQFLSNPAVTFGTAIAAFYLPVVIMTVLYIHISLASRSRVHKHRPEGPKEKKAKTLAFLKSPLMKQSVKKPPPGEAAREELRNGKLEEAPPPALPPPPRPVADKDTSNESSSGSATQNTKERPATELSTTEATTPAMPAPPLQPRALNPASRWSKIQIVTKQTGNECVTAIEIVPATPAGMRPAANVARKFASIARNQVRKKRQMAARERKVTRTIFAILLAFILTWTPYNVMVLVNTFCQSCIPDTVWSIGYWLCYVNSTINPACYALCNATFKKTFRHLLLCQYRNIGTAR
Put plainly: cell-based. The settings on record: read-out: % Efficacy M4.

Data set [3] deals with T3, M2 muscarinic receptor (Homo sapiens, UniProt P08172).
T3 sequence (P08172 1-466): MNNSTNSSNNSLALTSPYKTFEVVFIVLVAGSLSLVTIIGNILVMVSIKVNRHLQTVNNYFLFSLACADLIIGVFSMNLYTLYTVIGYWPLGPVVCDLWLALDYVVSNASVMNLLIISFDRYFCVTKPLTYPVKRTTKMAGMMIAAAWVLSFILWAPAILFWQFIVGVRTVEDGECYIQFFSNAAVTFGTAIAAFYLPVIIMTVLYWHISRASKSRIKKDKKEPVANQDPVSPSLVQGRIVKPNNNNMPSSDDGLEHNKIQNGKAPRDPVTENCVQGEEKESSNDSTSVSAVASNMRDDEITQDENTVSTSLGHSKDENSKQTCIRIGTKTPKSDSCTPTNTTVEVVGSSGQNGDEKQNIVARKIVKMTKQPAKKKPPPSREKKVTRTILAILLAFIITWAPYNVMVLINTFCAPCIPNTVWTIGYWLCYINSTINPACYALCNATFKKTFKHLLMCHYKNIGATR
Put plainly: R-SAT functional receptor assay, M2. The settings on record: for Emax: read-out: % Efficacy M2.

Data set [4] addresses T4, human M1 muscarinic receptors (Homo sapiens, UniProt P11229). The settings on record: PI hydrolysis; ± standard deviation.
Data set [5] concerns hippocampal MAP kinase (MAPK) activity in CA1 pyramidal neurons. Nature of the data set: hippocampal MAP kinase activation assay after parenteral administration. The class given is in vivo, C57BL6 mice.
Data set [6] has as its target T4, human M1 muscarinic receptors. The settings on record: R-SAT; relative to full agonist carbachol; ± standard deviation.
For data set [7] the target is unchanged. Put plainly: cell-based. The settings on record: ± standard deviation.
The target is the same in data set [8]. Put plainly: cell-based.
Data set [9] deals with M3 muscarinic receptor (Homo sapiens, UniProt P20309). Put plainly: R-SAT functional receptor assay, M3. The settings on record: for Emax: read-out: % Efficacy M3.
Chain of M3 muscarinic receptor (P20309 whole entry): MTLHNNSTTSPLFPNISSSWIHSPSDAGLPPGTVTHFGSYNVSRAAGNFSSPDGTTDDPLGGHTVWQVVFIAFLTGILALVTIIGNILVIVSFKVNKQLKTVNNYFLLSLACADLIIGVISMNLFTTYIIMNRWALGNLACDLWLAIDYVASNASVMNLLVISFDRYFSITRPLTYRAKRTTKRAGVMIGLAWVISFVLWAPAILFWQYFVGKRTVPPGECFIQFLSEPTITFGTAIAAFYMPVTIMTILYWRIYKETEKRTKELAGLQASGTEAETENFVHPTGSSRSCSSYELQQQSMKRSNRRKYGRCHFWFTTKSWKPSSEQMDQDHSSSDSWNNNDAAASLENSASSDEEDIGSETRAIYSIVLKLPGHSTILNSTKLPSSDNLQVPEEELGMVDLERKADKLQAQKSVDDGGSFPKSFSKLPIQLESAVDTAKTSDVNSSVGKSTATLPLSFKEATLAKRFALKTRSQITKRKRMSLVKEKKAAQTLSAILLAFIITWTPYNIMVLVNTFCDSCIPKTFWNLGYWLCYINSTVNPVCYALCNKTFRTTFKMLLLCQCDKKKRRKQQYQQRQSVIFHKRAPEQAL
The target of data set [10] is T2, M4 muscarinic receptor. The settings on record: R-SAT; relative to full agonist carbachol; ± standard deviation.

T4 sequence (P11229 whole entry): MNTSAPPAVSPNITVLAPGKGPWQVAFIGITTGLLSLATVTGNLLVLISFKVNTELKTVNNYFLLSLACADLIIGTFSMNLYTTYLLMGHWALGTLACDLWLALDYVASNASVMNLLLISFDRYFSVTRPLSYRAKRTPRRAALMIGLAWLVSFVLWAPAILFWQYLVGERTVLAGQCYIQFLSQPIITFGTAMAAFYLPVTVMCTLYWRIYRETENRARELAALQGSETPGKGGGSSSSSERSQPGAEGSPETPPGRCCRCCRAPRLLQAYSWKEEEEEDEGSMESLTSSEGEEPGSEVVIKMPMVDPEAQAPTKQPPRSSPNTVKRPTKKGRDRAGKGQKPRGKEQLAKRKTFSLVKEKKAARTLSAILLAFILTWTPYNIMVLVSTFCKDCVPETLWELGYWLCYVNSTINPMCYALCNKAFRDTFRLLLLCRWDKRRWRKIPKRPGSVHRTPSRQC

Consider `C[N+](C)(C)CCOC(N)=O` [Carbachol, carbachol], for which the Emax in data set [1] came to 105 ± 3%; in data set [2], 96 ± 3%.

`CN1CCN(C2=Nc3cc(Cl)ccc3Nc3ccccc32)CC1` [Clozapine, clozapine]: the Emax stood at 57 ± 4% in [3] and 49 ± 6% in [2]. Besides, the “% Efficacy M5” value in data set [1] (R-SAT, ± standard deviation) was “no response”.

With `Clc1ccc2c(c1)N=C(N1CCNCC1)c1ccccc1N2` [N-desmethylclozapine, 8-chloro-11-(1-piperazinyl)-5H-dibenzo[b,e][1,4]diazepine], the “pEC50 M1” value in data set [4] is recorded as 7.01 ± 0.06. For the same compound, the EC50 in [3] was 0.182 µM; in data set [7] (pEC50 M1, R-SAT), 0.0631 µM and 0.0603 µM; in data set [1] (R-SAT, ± standard deviation, read-out: pEC50 M5 (converted)), 0.0457 µM; in data set [8], 0.1 µM; in [9] it was 0.129 µM. The Emax in data set [3] is 78 ± 7%; in data set [7] (read-out: % Efficacy M1, R-SAT, relative to full agonist carbachol), 65%; in data set [1], 66 ± 4%; in data set [2] it was 88 ± 3%; in [8] (read-out: % Efficacy M1, PI hydrolysis, relative to full agonist carbachol, ± standard deviation), greater than 65%; in [9], 19 ± 3%. Moreover, the “blood brain barrier penetration” value in data set [5] (concluded from central MAPK activation after s.c. dosing) is recorded as “penetrates the blood brain barrier”. In [5] (s.c., dose of 30 mg/kg), the “MAPK activation in hippocampus” value was “Robust activation”. Besides, the “phospho-MAPK immunoreactivity in CA1 pyramidal neurons” value in data set [5] (s.c., immunohistochemistry, compared to vehicle or clozapine treatment) is reported as “increased phospho-MAPK immunoreactivity”. Also, in [6], the “% Efficacy M1” value was 61 ± 5%.

With `Cc1cc2c(s1)Nc1ccccc1N=C2N1CCN(C)CC1` [Olanzapine, olanzapine], the “% Efficacy M2” value in [3] (R-SAT, relative to full agonist carbachol, ± standard deviation) is “no response”. Further, the “% Efficacy M4” value in data set [10] is given as “no response”. In addition, the “% Efficacy M5” value in data set [1] (R-SAT, ± standard deviation) is recorded as “no response”.

For the compound `CCCCCCOc1nsnc1C1=CCCN(C)C1` [Xanomeline], the Emax in [3] amounted to 106 ± 9%; in data set [1], 86 ± 12%; in data set [2], 116 ± 9%; in data set [9] it was 66 ± 6%.
